# What was measured:
# Type in all cases: in vivo
# [1] = tested on: morning glory; assay: Greenhouse trial: castor oil ethoxylate derivatives with glyphosate, morning glory (Example 25); settings: 300 g ae/HA glyphosate; 4 weeks after treatment; ranking from picture
# Method: (§1) A greenhouse trial was conducted by spraying solutions of 300 g ae/HA of IPA-glyphosate on wheat. The glyphosate formulation was based on 360 g/L IPA containing 10% active surfactant. Wheat was used as the “weed” because it germinates smoothly and it is a good species for herbicide study. The untreated check (UTC) was sprayed with only water. Pot 150 was sprayed with glyphosate only solution. Pot 149 was sprayed with glyphosate solution containing tallowamine-15EO (TAE15). TAE15 is the most common surfactant used to enhance glyphosate efficacy.
# The condition and treatment of example 25 was identical to example 23 except that example 25 used morning glory instead of wheat.
# [2] = tested on: wheat; assay: Greenhouse trial: bioefficacy enhancing effect of surfactants on glyphosate, wheat (Example 23); settings: 300 g ae/HA IPA-glyphosate sprayed on wheat; 360 g/L IPA formulation with 10% active surfactant; 4 weeks after treatment; from fresh weight
# Method: as §1
# Plants were sprayed with glyphosate solutions containing surfactant according to the present invention. Table below lists the various surfactants and their corresponding pots. Percent growth control data for 4 weeks after treatment is also shown in this table as well. Percent growth control data was obtained from the fresh weight of these plants. The data clearly indicates glyphosate solutions containing surfactant according to the present invention provides better growth control than glyphosate only, thus acting as an adjuvant. In many cases the adjuvancy is equal to that of TAE15.
# [3] = tested on: wheat; assay: Greenhouse trial: hydroxylated soybean oil derivatives with glyphosate, wheat, visual inspection (Example 24); settings: 300 g ae/HA IPA-glyphosate sprayed on wheat, 10% active surfactant, 4 weeks after treatment
# Method: as §1
# A separate set of test was conducted for these surfactants. The condition and treatment of example 24 was identical to example 23. […] In this case % growth control is a qualitative data obtained by visual inspection of the plants. The data clearly indicates glyphosate solutions containing surfactant according to the present invention provides enhanced growth control than glyphosate only, thus acting as an adjuvant.
smiles,measurement,setting,value
"CC(C)N.O=C(O)CNCP(=O)(O)O [IPA Glyphosate alone, IPA-glyphosate]",morningglory control compared with tallowamine-15EO,[1],didn't show much control
same,% Growth Control,[2],66%
same,% Growth Control (qualitative),[3],55%

# Reference: patent US10000437B2, “Nitrogen containing surfactants with alkoxylation on the hydroxyl group of fatty chains” (Akzo Nobel Chemicals International B.V., priority 2013, dated 2018)
